Data on 30 compounds can be found in US20250154152A1, “INHIBITORS OF NAEGLERIA FOWLERI” (Wisconsin Alumni Research Foundation, priority 2023, published 2025).

The subject of this assay is N. fowleri strain Nf69 (ATCC 30215) trophozoites. In words: Determination of EC50 values against Naegleria fowleri (growth inhibition, CellTiter Glo, 48 h). Format: cell-based. As to conditions: read-out: EC50 uM against N. fowleri. As to the method:
N. fowleri strain Nf69 (ATCC 30215) trophozoites were cultured axenically. Amoeba were seeded at […] in 100 μL of the indicated medium in white TC-treated 96-well plates (Thermo Scientific Nunc Microwell 136101). Cells were seeded into Nelson's Complete Media (NCM, 0.17% liver infusion broth (BD Difco, Franklin Lakes, NJ), 0.17% glucose, 0.012% sodium chloride, 0.0136% potassium phosphate monobasic, 0.0142% sodium phosphate dibasic, 0.0004% calcium chloride, 0.0002% magnesium sulfate, 10% heat-inactivated fetal bovine serum (FBS), 1% penicillin-streptomycin) at 37° C. in 96-well tissue culture plates. Vehicle or compound at concentrations initially ranging from 20 to 0.375 μM were added to cells, followed by culture for 48 h (37° C., 5% CO2). Plates were equilibrated to rt for 15 min and CellTiter Glo reagent was added followed by orbital shaking for 2 min. After an additional incubation (rt, 10 min), luminescence was scored on a BioTek Synergy H1 microplate reader. Luminescence values were used to calculate percent cell growth inhibition (based on controls) for each concentration of compound tested. Averages of triplicates were calculated and fit to dose-response curves for the determination of EC50 values, using Prism 9.0 (GraphPad Software, San Diego, CA). […] Other controls included media alone, cells and media, and vehicle and media. For very potent compounds, concentration of reagent in the dose-response assays were reduced to provide an appropriate range for EC50 value resolution.
Compounds of the present technology were tested for growth inhibition of N. fowleri per General Procedure 13, above.

Where [1] appears, read: ATCC30215, N. fowleri Nf69 trophozoites, 48 h culture, 37° C., CellTiter Glo luminescence.

Like-named read-outs stand apart in the source and are kept apart here. Some results are limits rather than exact numbers.

What is called EC50 is the midpoint of the concentration-response curve. Regarding `CC(C)OCCN1CCC[C@@H](c2nc3cc(Cl)c(Cl)cc3c(=O)n2C)C1` [Compound R-14aa, (R)-6,7-dichloro-2-(1-(2-isopropoxyethyl)piperidin-3-yl)-3-methylquinazolin-4(3H)-one], the EC50 under setting [1] is 1 to 10 µM.
On the same count and under the same terms, the value for `Cc1ccc2nc3n(c(=O)c2c1)CC[C@@H]1[C@@H]3CCCN1C` (racemic) [trans-5h, (±)-(4aR,13bS)-4,10-dimethyl-1,2,3,4,4a,5,6,13b-octahydro-8H-[1,6]naphthyridino[5,6-b]quinazolin-8-one] was 1 to 10 µM; that for `O=c1c2cc(Cl)c(Cl)cc2nc2n1CC[C@@H]1[C@@H]2CCCN1CC1CCOCC1` (racemic) [trans-7b, (±)-(4aR,13bS)-10,11-dichloro-4-((tetrahydro-2H-pyran-4-yl)methyl)-1,2,3,4,4a,5,6,13b-octahydro-8H-[1,6]naphthyridino[5,6-b]quinazolin-8-one] was 0.0001 to 0.1 µM; that for `Cc1ccc(-c2ccc3nc4n(c(=O)c3c2)CC[C@@H]2[C@H]4CCCN2C)cn1` (racemic) [cis-9a] was over 10 µM.
Still for that read-out and setting: to `Cn1c([C@@H]2CCCN(CC3COC3)C2)nc2ccc(Cl)cc2c1=O` [Compound R-14p, (R)-6-chloro-3-methyl-2-(1-(oxetan-3-ylmethyl)piperidin-3-yl)quinazolin-4(3H)-one] belongs over 10 µM; to `CN1CCC[C@@H]2c3nc4ccc(Cl)cc4c(=O)n3CC[C@H]21` (racemic) [trans-5d, (±)-(4aR,13bS)-10-chloro-4-methyl-1,2,3,4,4a,5,6,13b-octahydro-8H-[1,6]naphthyridino[5,6-b]quinazolin-8-one], 0.1 to 1 µM.
Regarding `CC(C)OCCN1CCC[C@@H]2c3nc4cc(Cl)c(Cl)cc4c(=O)n3CC[C@H]21` (racemic) [trans-7z, (±)-(4aR,13bS)-10,11-dichloro-4-(2-isopropoxyethyl)-1,2,3,4,4a,5,6,13b-octahydro-8H-[1,6]naphthyridino[5,6-b]quinazolin-8-one], the EC50 (ATCC30215, 48 h) lay within 0.0001 to 0.1 µM.
For `CN1CCC[C@H]2c3nc4ccccc4c(=O)n3CC[C@H]21` (racemic) [cis-5a, (±)-(4aR,13bR)-4-methyl-1,2,3,4,4a,5,6,13b-octahydro-8H-[1,6]naphthyridino[5,6-b]quinazolin-8-one], under setting [1], the EC50 is over 10 µM.
Still for that read-out and setting: the value for `COc1cc2nc3n(c(=O)c2cc1Cl)CC[C@@H]1[C@@H]3CCCN1CC1COC1` (single isomer, unassigned) [trans-10i-ent-1] was 0.1 to 1 µM.
On the same count and under the same terms, to `CN1CCC[C@H]2c3nc4ccc(F)cc4c(=O)n3CC[C@H]21` (racemic) [cis-5f, (±)-(4aR,13bR)-10-fluoro-4-methyl-1,2,3,4,4a,5,6,13b-octahydro-8H-[1,6]naphthyridino[5,6-b]quinazolin-8-one] belongs over 10 µM; to `CN1CCC[C@H]2c3nc4ccc(C(F)(F)F)cc4c(=O)n3CC[C@H]21` (racemic) [cis-5j, (±)-(4aR,13bR)-4-methyl-10-(trifluoromethyl)-1,2,3,4,4a,5,6,13b-octahydro-8H-[1,6]naphthyridino[5,6-b]quinazolin-8-one], 0.1 to 1 µM.
On the same count and under the same terms, the value for `CN1CCC[C@@H]2c3nc4cc(Cl)c(Cl)cc4c(=O)n3CC[C@H]21` (racemic) [trans-5q, (±)-(4aR,13bS)-10,11-dichloro-4-methyl-1,2,3,4,4a,5,6,13b-octahydro-8H-[1,6]naphthyridino[5,6-b]quinazolin-8-one] was 0.1 to 1 µM.
As to `CN1CCC[C@H]2c3nc4cc(Cl)ccc4c(=O)n3CC[C@H]21` (racemic) [cis-5k, (±)-(4aR,13bR)-11-chloro-4-methyl-1,2,3,4,4a,5,6,13b-octahydro-8H-[1,6]naphthyridino[5,6-b]quinazolin-8-one], the EC50 under setting [1] was over 10 µM.
Still for that read-out and setting: the value for `CN1CC[C@H]2c3nc4cc(F)c(F)cc4c(=O)n3CC[C@H]21` (racemic) [cis-5ee, (±)-(3aR,12bR)-9,10-difluoro-3-methyl-2,3,3a,4,5,12b-hexahydropyrrolo[3′,2′:3,4]pyrido[2,1-b]quinazolin-7(1H)-one] was over 10 µM; that for `CC(C)N1CCC[C@@H](c2nc3cc(Cl)c(Cl)cc3c(=O)n2C)C1` [Compound R-14b, (R)-6,7-dichloro-2-(1-isopropylpiperidin-3-yl)-3-methylquinazolin-4(3H)-one] was over 10 µM; that for `CN1CCC[C@@H]2c3nc4cc(C(F)(F)F)ccc4c(=O)n3CC[C@H]21` (racemic) [trans-5n, (±)-(4aR,13bS)-4-methyl-11-(trifluoromethyl)-1,2,3,4,4a,5,6,13b-octahydro-8H-[1,6]naphthyridino[5,6-b]quinazolin-8-one] was 0.1 to 1 µM.
As to `Cc1cccc(CN2CCC[C@@H]3c4nc5cc(Cl)c(Cl)cc5c(=O)n4CC[C@H]32)n1` (racemic) [trans-7p, (±)-(4aR,13bS)-10,11-dichloro-4-((6-methylpyridin-2-yl)methyl)-1,2,3,4,4a,5,6,13b-octahydro-8H-[1,6]naphthyridino[5,6-b]quinazolin-8-one], the EC50 under setting [1] fell in the range of 0.1 to 1 µM.
On the same count and under the same terms, to `COc1cc2nc3n(c(=O)c2cc1Cl)CC[C@H]1NCCC[C@H]31` (racemic) [trans-6c, (±)-(4aR,13bS)-10-chloro-11-methoxy-1,2,3,4,4a,5,6,13b-octahydro-8H-[1,6]naphthyridino[5,6-b]quinazolin-8-one] belongs 1 to 10 µM.
In the case of `O=c1c2ccccc2nc2n1CC[C@@H]1[C@H]2CCN1Cc1ccccc1` (racemic) [cis-5ff, (±)-(3aR,12bR)-3-benzyl-2,3,3a,4,5,12b-hexahydropyrrolo[3′,2′:3,4]pyrido[2,1-b]quinazolin-7(1H)-one], under setting [1], the EC50 was over 10 µM.
Same read-out and setting: the value for `CC(C)NCCN1CCC[C@@H]2c3nc4cc(Cl)c(Cl)cc4c(=O)n3CC[C@H]21` (racemic) [trans-7aa, (±)-(4aR,13bS)-10,11-dichloro-4-(2-(isopropylamino)ethyl)-1,2,3,4,4a,5,6,13b-octahydro-8H-[1,6]naphthyridino[5,6-b]quinazolin-8-one] was 0.1 to 1 µM; that for `N#Cc1ccc(CN2CCC[C@@H]3c4nc5cc(Cl)c(Cl)cc5c(=O)n4CC[C@H]32)cc1` (racemic) [trans-7r, (±)-(4-(((4aR,13bS)-10,11-dichloro-8-oxo-2,3,5,6,8,13b-hexahydro-1H-[1,6]naphthyridino[5,6-b]quinazolin-4(4aH)-yl)methyl)benzonitrile] was over 10 µM; that for `COc1ccc2c(=O)n3c(nc2c1)[C@H]1CCCN(C)[C@@H]1CC3` (racemic) [trans-50, (±)-(4aR,13bS)-11-methoxy-4-methyl-1,2,3,4,4a,5,6,13b-octahydro-8H-[1,6]naphthyridino[5,6-b]quinazolin-8-one] was 1 to 10 µM.
Same read-out and setting: the value for `Cn1c(C2CN(CC3COC3)C2)nc2cc(Cl)c(Cl)cc2c1=O` [Compound 14i, 6,7-dichloro-3-methyl-2-(1-(oxetan-3-ylmethyl)azetidin-3-yl)quinazolin-4(3H)-one] was over 10 µM; that for `Cn1c([C@H]2CCCN(CCN3CCCC3)C2)nc2cc(Cl)c(Cl)cc2c1=O` [Compound S-14cc, (S)-6,7-dichloro-3-methyl-2-(1-(2-(pyrrolidin-1-yl)ethyl)piperidin-3-yl)quinazolin-4(3H)-one] was over 10 µM.
The same measure, in the same setting: the value for `COc1cc2nc3n(c(=O)c2cc1OC)CC[C@@H]1[C@@H]3CCCN1C` (racemic) [trans-5r, (±)-(4aR,13bS)-10,11-dimethoxy-4-methyl-1,2,3,4,4a,5,6,13b-octahydro-8H-[1,6]naphthyridino[5,6-b]quinazolin-8-one] was over 10 µM; that for `O=C(c1ccccc1)N1CCC[C@@H]2c3nc4cc(Cl)c(Cl)cc4c(=O)n3CC[C@H]21` (racemic) [trans-7h, (±)-(4aR,13bS)-4-benzoyl-10,11-dichloro-1,2,3,4,4a,5,6,13b-octahydro-8H-[1,6]naphthyridino[5,6-b]quinazolin-8-one] was over 10 µM; that for `CN1CCC[C@@H]2c3nc4ccccc4c(=O)n3CC[C@H]21` (racemic) [trans-5a, (±)-(4aR,13bS)-4-methyl-1,2,3,4,4a,5,6,13b-octahydro-8H-[1,6]naphthyridino[5,6-b]quinazolin-8-one] was over 10 µM.
Regarding `COc1cc2nc3n(c(=O)c2cc1Cl)CC[C@@H]1[C@@H]3CCCN1CC1CC1` (racemic) [trans-7gg, (±)-(4aR,13bS)-10-chloro-4-(cyclopropylmethyl)-11-methoxy-1,2,3,4,4a,5,6,13b-octahydro-8H-[1,6]naphthyridino[5,6-b]quinazolin-8-one], under setting [1], the concentration giving a half-maximal response (EC50) was in the range of 0.0001 to 0.1 µM.
With `COc1cc2nc3n(c(=O)c2cc1Cl)CC[C@@H]1[C@@H]3CCCN1CCN1CCCC1` (racemic) [trans-7nn, (±)-(4aR,13bS)-10-chloro-11-methoxy-4-(2-(pyrrolidin-1-yl)ethyl)-1,2,3,4,4a,5,6,13b-octahydro-8H-[1,6]naphthyridino[5,6-b]quinazolin-8-one], the EC50 under setting [1] lay in the range of 0.1 to 1 µM.
Still for that read-out and setting: the value for `COCCN1CCC[C@@H]2c3nc4cc(Cl)c(Cl)cc4c(=O)n3CC[C@H]21` (racemic) [trans-7i, (±)-(4aR,13bS)-10,11-dichloro-4-(2-methoxyethyl)-1,2,3,4,4a,5,6,13b-octahydro-8H-[1,6]naphthyridino[5,6-b]quinazolin-8-one] was 0.0001 to 0.1 µM.
